The source of these data is patent publication US11072602B2, “Antidiabetic heterocyclic compounds” (Merck Sharp & Dohme Corp., priority 2016, dated 2021).

This assay addresses T1, human GPR40 (Homo sapiens, UniProt O14842).
T1 construct: expressed in transfected cells
Description: Inositol Phosphate Turnover (IP1) Assay. It is filed as cell-based. The settings on record: HEK cells stably expressing human GPR40, 7500 cells per well, CisBio IP-One kit. On the procedure: Human GPR40 stable cell-lines were generated in HEK cells. The expression plasmids were transfected using lipofectamine (Life Technologies) following manufacturer's instructions. Stable cell-lines were generated following drug selection and single cell cloning.
The assay was performed in 384-well format. HEK cells stably expressing human GPR40 were plated at 7500 cells per well in growth medium (DMEM/10% fetal calf serum). Cell plates were then incubated 16 hours at 37 degrees in a 5% CO2 incubator. Measurement of Inositol Phosphate Turnover (IP1) was performed using the CisBio IP-One kit (Part number 62IPAPEB). After the 16 hour incubation, the growth media was removed by centrifugation using the BlueWasher (AusWasher GUI Ver. v1.0.1.8) Protocol #21-“Light Dry” and 10 ul of stimulation buffer (prepared as described in the kit) was added to each well. In a separate plate, compounds were diluted in DMSO (200-fold over the final concentration in the assay well) and 50 nl was acoustically transferred to the appropriate well in the assay cell plate. The plates were then incubated for 60 minutes at 37 degrees in a 5% CO2 incubator. 10 ul of detection buffer (also prepared as described in the IP-One kit) was added to each well and the plates were incubated at room temperature for 60 minutes in the dark. The plates were then read in a Perkin Elmer EnVision or equivalent reader able to measure FRET. Fluorescent ratio of emission at 665 and 620 nm was then converted to IP1 concentration by back calculating from an IP1 standard curve prepared at the time of the assay. Data was normalized to % activity using a reference compound and EC50s determined using a standard 4-parameter fit.

T1 sequence (O14842 whole entry): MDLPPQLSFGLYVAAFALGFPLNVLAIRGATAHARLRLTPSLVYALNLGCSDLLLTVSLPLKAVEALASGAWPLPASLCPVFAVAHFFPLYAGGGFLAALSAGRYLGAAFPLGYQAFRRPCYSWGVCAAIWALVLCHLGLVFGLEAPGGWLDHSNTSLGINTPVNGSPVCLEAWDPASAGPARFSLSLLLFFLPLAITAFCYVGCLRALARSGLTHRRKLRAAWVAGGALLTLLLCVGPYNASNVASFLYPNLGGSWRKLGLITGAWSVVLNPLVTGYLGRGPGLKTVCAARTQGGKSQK

The molecule `C[C@H](C(=O)O)[C@H](c1ccc2c(c1)OC(C1[C@@H]3CC[C@@H]1CN([C@@H](C)c1cc(F)ccc1C(F)(F)F)C3)CC2)C1CC1` (single isomer, unassigned) [Example 30, (2S,3R)-3-cyclopropyl-3-((2R or 2S)-2-((1R,5S)-3-((S)-1-(5-fluoro-2-(tri-fluoromethyl)phenyl)eth-yl)-3-azabicyclo[3.2.1]-octan-8-yl)chroman-7-yl)-2-methylpropanoic acid] registered an EC50 of 453 nM.
To `C[C@H](C(=O)O)[C@H](c1ccc2c(c1)OC(C1[C@@H]3CC[C@@H]1CN([C@@H](C)c1cc(F)ccc1C(F)(F)F)C3)CC2)C1CC1` (single isomer, unassigned) [Example 31, (2S,3R)-3-cyclopropyl-3-((2R or 2S)-2-((1R,5S)-3-((S)-1-(5-fluoro-2-(trifluoromethyl)phenyl)ethyl)-3-azabicyclo[3.2.1]-octan-8-yl)chroman-7-yl)-2-methylpropanoic acid] belongs 32.6 nM; to `CC(C(=O)O)C(c1ccc2c(c1)OC(C1CC3CCCC(C1)N3C(C)c1cc(F)ccc1C(F)(F)F)CC2)C1CC1` (single isomer, unassigned) [Example 34], 29.4 nM.
Turning to `CC(C(=O)O)C(c1ccc2c(c1)OC(C1CC3CCCC(C1)N3C(C)c1cc(F)ccc1C(F)(F)F)CC2)C1CC1` (single isomer, unassigned) [Example 35], a half-maximal effect (EC50) was put at 90.9 nM.
Molecule `CC(c1cc(Cl)ccc1C(F)(F)F)N1C[C@H]2CC1CC2C1CCc2ccc([C@H](C3CC3)[C@H](C)C(=O)O)cc2O1` (single isomer, unassigned) [Example 36, (2S,3R)-3-((S or R)-2-((R or S, R or S)-2-(1-(5-chloro-2-(trifluoromethyl)-phenyl)-ethyl)-2-azabicyclo[2.2.1]heptan-5-yl)chroman-7-yl)-3-cyclopropyl-2-methylpropanoic Acid] showed a concentration for a half-maximal effect (EC50) of 12.3 nM.
In turn, `CC(c1cc(F)ccc1OC(F)(F)F)N1CC2CC1CC2C1CCc2ccc([C@H](C3CC3)[C@H](C)C(=O)O)cc2O1` (single isomer, unassigned) [Example 37, (2S,3R)-3-cyclopropyl-3-((R or S)-2-((R or S,R or S)-2-((RS)-1-(5-fluoro-2-(trifluoro-methoxy)-phenyl)ethyl)-2-aza-bicyclo[2.2.1]heptan-5-yl)-chroman-7-yl)-2-methyl-propanoic acid] came in with an EC50 of 71.4 nM.
Molecule `C[C@H](C(=O)O)[C@H](c1ccc2c(c1)OC(C13CCN([C@H](C)c4cc(F)ccc4OC(F)(F)F)C(C1)C3)CC2)C1CC1` (single isomer, unassigned) [Example 43] gave an EC50 of 60.6 nM.
With `C[C@H](C(=O)O)[C@H](c1ccc2c(c1)OC(C13CCN([C@H](C)c4cc(F)ccc4OC(F)(F)F)C(C1)C3)CC2)C1CC1` (single isomer, unassigned) [Example 44], the EC50 came to 2.14 nM.
Under `C[C@H](C(=O)O)[C@H](c1ccc2c(c1)OC(C1C3COCC1CN([C@H](C)c1cc(C(F)(F)F)ccc1C(F)(F)F)C3)CC2)C1CC1` (stereo partly drawn) [Example 3, (2S,3R)-3-(2-((1R,5S)-7-((R)-1-(2,5-bis(trifluoromethyl)phenyl)ethyl)-3-oxa-7-azabicyclo[3.3.1]nonan-9-yl)chroman-7-yl)-3-cyclopropyl-2-methylpropanoic acid] stands 20.3 nM; under `C[C@H](C(=O)O)[C@H](c1ccc2c(c1)OC(C1C3COCC1CN([C@H](C)c1cc(C(F)(F)F)ccc1C(F)(F)F)C3)CC2)C1CC1` (stereo partly drawn) [Example 4, (2S,3R)-3-(2-((1R,5S)-7-((R)-1-(2,5-bis(trifluoromethyl)phenyl)ethyl)-3-oxa-7-azabicyclo[3.3.1]nonan-9-yl)chroman-7-yl)-3-cyclopropyl-2-methylpropanoic acid], 36.6 nM; under `C[C@H](C(=O)O)[C@H](c1ccc2c(c1)OC(C1C3COCC1CN([C@@H](C)c1cc(C(F)(F)F)ccc1C(F)(F)F)C3)CC2)C1CC1` (stereo partly drawn) [Example 5, (2S,3R)-3-(2-((1R,5S)-7-((S)-1-(2,5-bis(trifluoro-methyl)phenyl)ethyl)-3-oxa-7-azabicyclo[3.3.1]-nonan-9-yl)chroman-7-yl)-3-cyclopropyl-2-methyl-propanoic acid], 33.8 nM.
In turn, `C[C@H](C(=O)O)[C@H](c1ccc2c(c1)OC(C1C3COCC1CN([C@@H](C)c1cc(C(F)(F)F)ccc1C(F)(F)F)C3)CC2)C1CC1` (stereo partly drawn) [Example 6, (2S,3R)-3-(2-((1R,5S)-7-((S)-1-(2,5-bis(trifluoro-methyl)phenyl)ethyl)-3-oxa-7-azabicyclo[3.3.1]-nonan-9-yl)chroman-7-yl)-3-cyclopropyl-2-methyl-propanoic acid] displayed an EC50 of 21.5 nM. This EC50 lies about 1.6-fold lower than the previous one.
Under `C[C@H](C(=O)O)[C@H](c1ccc2c(c1)OC(C1CC3CCC(C1)N3[C@@H](C)c1cc(C(F)(F)F)ccc1C(F)(F)F)CC2)C1CC1` (stereo partly drawn) [Example 13, (2S,3R)-3-(2-((1R5S)-8-((S)-1-(2,5-bis(trifluoromethyl)phenyl)ethyl)-8-azabicyclo[3.2.1]octan-3-yl)chroman-7-yl)-3-cyclopropyl-2-methylpropanoic Acid] stands 11.9 nM; under `C[C@H](C(=O)O)[C@H](c1ccc2c(c1)OC(C1CC3CCC(C1)N3[C@H](C)c1cc(C(F)(F)F)ccc1C(F)(F)F)CC2)C1CC1` (stereo partly drawn) [Example 14, (2S,3R)-3-(2-((1R,5S)-8-((R)-1-(2,5-bis(trifluoro-methyl)phenyl)ethyl)-8-azabicyclo[3.2.1]octan-3-yl)chroman-7-yl)-3-cyclopropyl-2-methyl-propanoic acid], 11.1 nM; under `C[C@H](C(=O)O)[C@H](c1ccc2c(c1)OC(C1CC3CCC(C1)N3[C@H](C)c1cc(F)ccc1C(F)(F)F)CC2)C1CC1` (stereo partly drawn) [Example 15, (2S,3R)-3-cyclopropyl-3-(2-((1R,5S)-8-((R)-1-(5-fluoro-2-(trifluoromethyl)-phenyl)ethyl)-8-aza-bicyclo[3.2.1]octan-3-yl)chroman-7-yl)-2-methylpropanoic acid], 17.5 nM.
Under `C[C@H](C(=O)O)[C@H](c1ccc2c(c1)OC(C1C[C@@H]3C[C@@H]1CN3[C@@H](C)c1cc(C(F)(F)F)ccc1C(F)(F)F)CC2)C1CC1` (stereo partly drawn) [Example 16, (2S,3R)-3-(2-((1S,4S)-2-((S)-1-(2,5-bis(trifluoromethyl)phenyl)ethyl)-2-aza-bicyclo-[2.2.1]heptan-5-yl)chroman-7-yl)-3-cyclopropyl-2-methylpropanoic Acid] stands 1.28 nM; under `C[C@H](C(=O)O)[C@H](c1ccc2c(c1)OC(C1CC3CC1CN3[C@H](C)c1cc(C(F)(F)F)ccc1C(F)(F)F)CC2)C1CC1` (stereo partly drawn) [Example 17, (2S,3R)-3-(2-((1S,4S)-2-((R)-1-(2,5-bis(trifluoromethyl)-phenyl)ethyl)-2-azabicyclo-[2.2.1]heptan-5-yl)chroman-7-yl)-3-cyclopropyl-2-methyl-propanic acid], 0.688 nM.
Turning to `C[C@H](C(=O)O)[C@H](c1ccc2c(c1)OC(C1CC3CC1CN3[C@@H](C)c1cc(F)ccc1C(F)(F)F)CC2)C1CC1` (stereo partly drawn) [Example 18, (2S,3R)-3-cyclopropyl-3-(2-((1S,4S)-2-((S)-1-(5-fluoro-2-(trifluoromethyl)phenyl)ethyl)-2-azabicyclo[2.2.1]heptan-5-yl)chroman-7-yl)-2-methyl-propanoic acid], the EC50 came to 4.2 nM.
Molecule `C[C@H](C(=O)O)[C@H](c1ccc2c(c1)OC(C1CC3CC1CN3[C@@H](C)c1cc(F)ccc1C(F)(F)F)CC2)C1CC1` (stereo partly drawn) [Example 19, (2S,3R)-3-cyclopropyl-3-(2-((1S,4S)-2-((S)-1-(5-fluoro-2-(trifluoromethyl)phenyl)ethyl)-2-azabicyclo[2.2.1]heptan-5-yl)chroman-7-yl)-2-methyl-propanic acid] returned an EC50 of 2.62 nM.
To `C[C@H](C(=O)O)[C@H](c1ccc2c(c1)OC(C1CC3C[C@@H]1CN3[C@@H](C)c1cc(F)ccc1C(F)(F)F)CC2)C1CC1` (stereo partly drawn) [Example 38, (2S,3R)-3-cyclopropyl-3-(2-((4S)-2-((S)-1-(5-fluoro-2-(trifluoromethyl)phenyl)ethyl)-2-azabicyclo[2.2.1]heptan-5-yl)chroman-7-yl)-2-methyl-propanoic acid] belongs 10.6 nM; to `C[C@H](C(=O)O)[C@H](c1ccc2c(c1)OC(C13CCN([C@@H](C)c4cc(F)ccc4OC(F)(F)F)C(C1)C3)CC2)C1CC1` (stereo partly drawn) [Example 42], 2.09 nM.

In general, EC50 refers to the concentration giving half of the maximal effect. A low value points to an effect from little substance.
